Earlier results, collected in patent publication US8173175B2, “Ethanolic and/or aqueous composition of an ammoniacal solution of alkaline metal salts of azide, mainly sodium and potassium” (priority 2005, dated 2012).

Legend:
[1] = tested on: catalase; settings: grapevine buds (Nir and Lavee 1993); for H2CN2 according to the manufacturer
[2] = tested on: grapevine buds; settings: Nir and Lavee 1993

Row | Structure (SMILES) | European Union toxicity classification (EU catalogue) | USEPA toxicity category (United States Environmental Protection Agency classification) | inhibition of catalase activity [1] | effect on the budding [2]
1 | N#CN [H2CN2, hydrogen cyanamide] | toxic, harmful compound in contact with the skin and eyes and skin irritant | category I (acute toxic) | inhibition of the enzyme catalase | 
2 | Nc1ncn[nH]1 [1,4-triazolamine] |  |  | able of inhibit the catalase activity | does not have any effect on the budding
